From PMC5469811, “Identification of GXXXXG motif in Chrysophsin-1 and its implication in the design of analogs with cell-selective antimicrobial and anti-endotoxin activities” (Scientific Reports, 2017)
Values after ≈ are worked out from the molar mass of the structure shown. Residues, ends and D or L forms follow the SMILES beside them.

Columns and labels:
[1] = test system: Sporothrix schenckii (Patient isolates); experiment: microbe, parasite or virus in culture; assay type: cell-based; settings: 48 h; read-out: Minimum inhibitory concentration (MIC)
S. aureus (ATCC 25923) = assay type: cell-based, Staphylococcus aureus; settings: ATCC 25923, 1 h
Procedure: (§1) E. coli ATCC25922 was grown to 10^6 CFU/ml in fresh MH broth with various divalent and monovalent salts at their physiological concentrations. Serial dilutions of chrysophsin-1 and its variants prepared with the same MH broth were added to the E. coli ATCC 25922 suspensions. The bacteria were incubated at 37 °C in a shaking incubator for 18 h and the MIC values of individual peptides against E. coli ATCC 25922 were determined. Thermal tolerance of Chrysophsin-1 and its variants was checked by incubating the peptides at 4 °C, 60 °C and 90 °C for 1 h prior to MIC determination. The antibacterial activity in presence of serum was carried out by adding a final concentration of 10% fetal bovine serum in the assay diluents containing 0.4% BSA, 0.02% glacial acetic acid. The subsequent steps in both the experiments were consistent with the MIC determination method.

[2] = test system: Candida albicans (ATCC 10231); experiment: microbe, parasite or virus in culture; assay type: cell-based; settings: ATCC 10231, 48 h; read-out: Minimum inhibitory concentration (MIC)
Procedure: (§2) The anti- fungal activity of peptides was performed according to the standard micro broth dilution technique as per NCCLS guidelines. These plates were incubated in a moist chamber at 35 °C, and an absorbance at 492 nm was recorded on a VersaMax microplate reader after 48 h for C. albicans ATCC 10231 and C. parapsilosis ATCC 22019 and 72 h for C. neoformans.

Cryptococcus neoformans = experiment: microbe, parasite or virus in culture; assay type: cell-based; settings: 72 h; read-out: Minimum inhibitory concentration (MIC)
Procedure: as §2

[3] = test system: Candida parapsilosis (ATCC 22019); experiment: microbe, parasite or virus in culture; assay type: cell-based; settings: ATCC 22019, 48 h; read-out: Minimum inhibitory concentration (MIC)
Procedure: as §2

E. coli ATCC 25922 [4] = experiment: Synergy with conventional antibiotics, checkerboard titration; assay type: cell-based, Escherichia coli
Procedure: The checkerboard titration method was followed to check the synergy of peptides with other antibiotics. First, 2-fold serial dilutions of the antibiotics and antimicrobial peptides were prepared. Subsequently, 50 μl each of different concentrations of antibiotics and of antimicrobial peptides was mixed and added into 100 μl of log phase bacteria culture in a 96-well plate. The plates were then incubated at 37 °C for 24 h. The fractional inhibitory concentration (FIC) index (FICI) was calculated as follows[39]: FICI=(MICofdrugAincombination)/(MICofdrugAalone)+(MICofdrugBincombination)/(MICofdrugB): FICI < 0.5 is considered to indicate synergy; 0.5 < FICI < 1.0 is considered additive; 1.0 < FICI < 4.0 is considered indifferent; and FICI > 4.0 is considered antagonism.

E. coli (ATCC 25922) = assay type: cell-based, Escherichia coli; settings: ATCC 25922, 1 h
Procedure: as §1

E. coli ATCC 25922 [5] = assay type: cell-based, Escherichia coli; settings: ATCC 25922, 18 h
Procedure: as §1

[6] = test system: Escherichia coli (ATCC 25922); experiment: microbe, parasite or virus in culture; assay type: cell-based; settings: ATCC 25922; read-out: Minimum inhibitory concentration (MIC)
Procedure: (§3) Antibacterial assay against various Gram-positive and Gram-negative strains of bacteria was performed by the serial two-fold dilution method according to the previously reported procedure, [36]. The antibacterial assays were repeated thrice and the averages of these MIC values were reported.

[7] = test system: Staphylococcus aureus (ATCC 33592) Methicillin resistant Genatmicin resistant; experiment: microbe, parasite or virus in culture; assay type: cell-based; settings: ATCC 33592; read-out: Minimum inhibitory concentration (MIC)
Procedure: as §3

[8] = test system: Klebsiella pneumoniae (ATCC 27736); experiment: microbe, parasite or virus in culture; assay type: cell-based; settings: ATCC 27736; read-out: Minimum inhibitory concentration (MIC)
Procedure: as §3

[9] = test system: Bacillus subtilis (ATCC 6633); experiment: microbe, parasite or virus in culture; assay type: cell-based; settings: ATCC 6633; read-out: Minimum inhibitory concentration (MIC)
Procedure: as §3

[10] = test system: Pseudomonas aeruginosa (ATCC BAA-427); experiment: microbe, parasite or virus in culture; assay type: cell-based; settings: ATCC BAA-427; read-out: Minimum inhibitory concentration (MIC)
Procedure: as §3

[11] = test system: Staphylococcus aureus (ATCC 700698 MRSA); experiment: microbe, parasite or virus in culture; assay type: cell-based; settings: ATCC 700698; read-out: Minimum inhibitory concentration (MIC)
Procedure: as §3

[12] = test system: Staphylococcus aureus (ATCC 29213); experiment: microbe, parasite or virus in culture; assay type: cell-based; settings: ATCC 29213; read-out: Minimum inhibitory concentration (MIC)
Procedure: as §3

[13] = test system: Staphylococcus aureus (ATCC 25923); experiment: microbe, parasite or virus in culture; assay type: cell-based; settings: ATCC 25923; read-out: Minimum inhibitory concentration (MIC)
Procedure: as §3

[14] = test system: Staphylococcus aureus (ATCC 700699 MRSA); experiment: microbe, parasite or virus in culture; assay type: cell-based; settings: ATCC 700699; read-out: Minimum inhibitory concentration (MIC)
Procedure: as §3

[15] = test system: Escherichia coli (ATCC 9637); experiment: microbe, parasite or virus in culture; assay type: cell-based; settings: ATCC 9637; read-out: Minimum inhibitory concentration (MIC)
Procedure: as §3

[16] = test system: Staphylococcus aureus (BAA-44)MDR; experiment: microbe, parasite or virus in culture; assay type: cell-based; settings: BAA-44; read-out: Minimum inhibitory concentration (MIC)
Procedure: as §3

| SMILES | MIC [1] | Antibacterial activity (MIC) after incubating peptide at 4 °C (S. aureus (ATCC 25923)) | Antibacterial activity (MIC) after incubating peptide at 60 °C (S. aureus (ATCC 25923)) | Antibacterial activity (MIC) after incubating peptide at 90 °C (S. aureus (ATCC 25923)) | MIC [2] | MIC (Cryptococcus neoformans) | MIC [3] | interaction of peptide with chloramphenicol (by FICI) (E. coli ATCC 25922 [4]) | Antibacterial activity (MIC) after incubating peptide at 4 °C (E. coli (ATCC 25922)) | Antibacterial activity (MIC) after incubating peptide at 60 °C (E. coli (ATCC 25922)) | Antibacterial activity (MIC) after incubating peptide at 90 °C (E. coli (ATCC 25922)) | Antibacterial activity (MIC) in the presence of 10% FBS (E. coli ATCC 25922 [5]) | Antibacterial activity (MIC) in the presence of FeCl3 (E. coli ATCC 25922 [5]) | Antibacterial activity (MIC) in the presence of KCl (E. coli ATCC 25922 [5]) | Antibacterial activity (MIC) in the presence of MgCl2 (E. coli ATCC 25922 [5]) | Antibacterial activity (MIC) in the presence of NH4Cl (E. coli ATCC 25922 [5]) | Antibacterial activity (MIC) in the presence of NaCl (E. coli ATCC 25922 [5]) | Antibacterial activity (MIC) in the presence of ZnCl2 (E. coli ATCC 25922 [5]) | MIC [6] | MIC [7] | other results |
| --- | --- | --- | --- | --- | --- | --- | --- | --- | --- | --- | --- | --- | --- | --- | --- | --- | --- | --- | --- | --- | --- |
| CC[C@H](C)[C@H](NC(=O)[C@H](C)NC(=O)[C@H](CCCCN)NC(=O)CNC(=O)[C@H](C)NC(=O)[C@H](Cc1c[nH]cn1)NC(=O)[C@@H](NC(=O)[C@H](C)NC(=O)[C@@H]1CCCN1C(=O)[C@H](CCCCN)NC(=O)[C@@H](NC(=O)[C@H](CC(C)C)NC(=O)[C@H](Cc1c[nH]c2ccccc12)NC(=O)CNC(=O)[C@H](Cc1ccccc1)NC(=O)[C@@H](N)Cc1ccccc1)[C@@H](C)CC)[C@@H](C)CC)C(=O)N[C@@H](Cc1c[nH]cn1)C(=O)NCC(=O)N[C@@H](CC(C)C)C(=O)N[C@H](C(=O)N[C@@H](Cc1c[nH]cn1)C(=O)N[C@@H](CCCNC(=N)N)C(=O)N[C@@H](CCCNC(=N)N)C(=O)N[C@@H](CCCNC(=N)N)C(=O)N[C@@H](Cc1c[nH]cn1)C(N)=O)[C@@H](C)CC [Peptide G8P-Chr-1] (H-FFGWLIKPAIHAGKAIHGLIHRRRH-NH2; N-terminus and C-terminus assumed) | 13.6 µM (≈ 39.9 µg/mL) | 3 µM | 4.3 µM | 8.6 µM | 3 µM (≈ 8.79 µg/mL) | 6.8 µM (≈ 19.9 µg/mL) | 6.8 µM (≈ 19.9 µg/mL) | synergy (FICI < 0.5 is considered to indicate synergy) | 4.1 µM | 4.3 µM | 8.3 µM | 8.6 µM | 4.1 µM | 4.3 µM | 4.3 µM | 2.0 µM | 8.6 µM | 2 µM | 4.1 µM (≈ 12 µg/mL) | 0.8 µM (≈ 2.35 µg/mL) | MIC [8]: 3.3 µM (≈ 9.67 µg/mL); MIC [9]: 3 µM (≈ 8.79 µg/mL); MIC [10]: 6.8 µM (≈ 19.9 µg/mL); MIC [11]: 1.6 µM (≈ 4.69 µg/mL); MIC [12]: 1.6 µM (≈ 4.69 µg/mL); MIC [13]: 3 µM (≈ 8.79 µg/mL); MIC [14]: 1.6 µM (≈ 4.69 µg/mL); MIC [15]: 3.3 µM (≈ 9.67 µg/mL); MIC [16]: 1.6 µM (≈ 4.69 µg/mL) |
| CC[C@H](C)[C@H](NC(=O)[C@H](C)NC(=O)CNC(=O)[C@H](CCCCN)NC(=O)[C@@H](NC(=O)[C@H](CC(C)C)NC(=O)[C@H](Cc1c[nH]c2ccccc12)NC(=O)CNC(=O)[C@H](Cc1ccccc1)NC(=O)[C@@H](N)Cc1ccccc1)[C@@H](C)CC)C(=O)N[C@@H](Cc1c[nH]cn1)C(=O)N[C@@H](C)C(=O)N1CCC[C@H]1C(=O)N[C@@H](CCCCN)C(=O)N[C@@H](C)C(=O)N[C@H](C(=O)N[C@@H](Cc1c[nH]cn1)C(=O)N1CCC[C@H]1C(=O)N[C@@H](CC(C)C)C(=O)N[C@H](C(=O)N[C@@H](Cc1c[nH]cn1)C(=O)N[C@@H](CCCNC(=N)N)C(=O)N[C@@H](CCCNC(=N)N)C(=O)N[C@@H](CCCNC(=N)N)C(=O)N[C@@H](Cc1c[nH]cn1)C(N)=O)[C@@H](C)CC)[C@@H](C)CC [G13,18P-Chr-1] (H-FFGWLIKGAIHAPKAIHPLIHRRRH-NH2; N-terminus and C-terminus assumed) | >30 µM | 3 µM | >33 µM | >33 µM | >30 µM | >30 µM | >30 µM | additivity | 4 µM | 14 µM | 17.2 µM | >33 µM | 26 µM | 6 µM | 20 µM | 5 µM | 20 µM | 12 µM | 4 µM (≈ 11.9 µg/mL) | 1.6 µM (≈ 4.75 µg/mL) | MIC [8]: 27.2 µM (≈ 80.8 µg/mL); MIC [9]: 3 µM (≈ 8.91 µg/mL); MIC [10]: 13.6 µM (≈ 40.4 µg/mL); MIC [11]: 3 µM (≈ 8.91 µg/mL); MIC [12]: 3 µM (≈ 8.91 µg/mL); MIC [13]: 3 µM (≈ 8.91 µg/mL); MIC [14]: 3 µM (≈ 8.91 µg/mL); MIC [15]: 6.8 µM (≈ 20.2 µg/mL); MIC [16]: 3 µM (≈ 8.91 µg/mL) |
